“And” between values parts separate entries of the source, which are not always exact repeats. Equal values may be shown once. Where a name gives a salt, the structure may show the parent alone. Read-outs that look alike come from different tables or passages of the source.
Legend:
[1] = tested on: A2780; experiment: Anti-proliferative effect in A2780 cells, CellTiter-Glo (Assay 7); type: cell-based
Procedure: (§1) Assessment of the Anti-Proliferative Effect of Compounds in Different Cell Lines
(§2) The impact of compounds on the proliferation of different cell lines was assessed using the CellTiter-Glo® Luminescent Cell Viability reagent from Promega (G7573).
(§3) In parallel, cells were plated in a reference (day 0) plate for time zero determination. Cells were incubated in a humidified incubator at 37° C. overnight.
(§4) Rim wells were excluded. The cells were incubated for 72 hours in a humidified incubator at 37° C. The day 0 plate was measured by adding 30 μL/well of CTG solution (CellTiter-Glo® Luminescent Cell Viability reagent, Promega G7573) to time zero wells in the reference plate followed by a 10 minutes incubation and luminescence reading at 0.1 ms. using the PHERAstar FS microplate reader (BMG Labtech).
(§5) After 72 hours incubation, the treated plates were measured in the same way as the day 0 plate mentioned above. The Bella DRC Master Sheet was used to calculate IC50s, with CI=day 0 values and C0=DMSO control values.

[2] = tested on: SUDHL5; experiment: Anti-proliferative effect in SUDHL5 cells, CellTiter-Glo (Assay 7); type: cell-based
Method in brief: (§6)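 CellTiter-Glo luminescence after 72 h compound exposure at 37 °C; a parallel time-zero plate was read the same way. IC50 derived relative to day 0 signal and DMSO control.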

[3] = tested on: SUDHL10; experiment: Induction of caspase-3/7 activity in SUDHL10 cells (Assay 4); type: cell-based
Method in brief: (§7)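 DLBCL lines SUDHL5 and SUDHL10 were treated with compound for 3 h at 37 °C. Caspase-3/7 activity was then read by Caspase-Glo 3/7 luminescence after 1 h at 37 °C. Medium-only background was subtracted and values were normalized to the mean of DMSO-treated cells.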

[4] = tested on: SUDHL10; experiment: Induction of cytotoxicity in SUDHL10 cells, CellTiter-Glo (Assay 6); type: cell-based; settings: SUDHL10, 5 hours incubation, median, read-out: Cytotox SUDHL10 [M] (median)
Method in brief: (§8)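 Cells plated and held overnight at 37° C in a humidified incubator, then compound-treated for 5 hours at 37° C. Viability read by CellTiter-Glo luminescence after 15 minutes shaking at room temperature; cell-free medium served as control.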

[5] = tested on: MV-4-11; experiment: Anti-proliferative effect in MV-4-11 cells, CellTiter-Glo (Assay 7); type: cell-based
Method in brief: as §6

[6] = tested on: AMO-1; experiment: Anti-proliferative effect in AMO-1 cells, CellTiter-Glo (Assay 7); type: cell-based
Procedure: as §1, §2, §3, §4, §5

[7] = biological target: MCL-1 (Homo sapiens, UniProt Q07820, K194A/K197A/R201A); experiment: Protein-protein interaction assay MCL-1/Noxa BH3 peptide, TR-FRET (MCL-1 assay, Assay 1); type: binding; settings: MCL-1 Assay [M] (median), MBP-MCL-1 / Noxa BH3 peptide
MCL-1, sequence (Q07820 173-321 K194A/K197A/R201A, looked up): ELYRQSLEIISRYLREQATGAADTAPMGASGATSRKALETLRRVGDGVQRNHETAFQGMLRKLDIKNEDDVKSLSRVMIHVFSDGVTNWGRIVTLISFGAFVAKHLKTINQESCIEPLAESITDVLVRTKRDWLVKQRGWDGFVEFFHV
Method in brief: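 Human MBP-fused MCL-1 (aa 173-321; 1 nM final) was pre-incubated 10 min at 22 °C with compound in pH 7 Tris buffer containing NaCl, KF, Tween-20, DTT and BGG. Displacement of biotinylated Noxa BH3 peptide was read by TR-FRET (anti-MBP-Eu cryptate/streptavidin-XL665) after 1 h at 22 °C plus overnight at 4 °C. IC50 came from four-parameter fits against DMSO controls.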

[8] = tested on: SUDHL5; experiment: Induction of cytotoxicity in SUDHL5 cells, CellTiter-Glo (Assay 6); type: cell-based; settings: SUDHL5, 5 hours incubation, median, read-out: Cytotox SUDHL5 [M] (median)
Method in brief: as §8

[9] = tested on: SUDHL5; experiment: Induction of caspase-3/7 activity in SUDHL5 cells (Assay 4); type: cell-based
Method in brief: as §7

[10] = A2780, 72 hours incubation, CellTiter-Glo; several values per example; read-out: Antiproli A2780
[11] = MV-4-11, 72 hours incubation, CellTiter-Glo; several values per example; read-out: Antiproli MV-4-11
[12] = AMO-1, 72 hours incubation, CellTiter-Glo; several values per example; read-out: Antiproli AMO-1
[13] = Homo sapiens, A2780, 72 h, A2780, 72 hours incubation, CellTiter-Glo; several values per example; read-out: Antiproli A2780
[14] = Homo sapiens, SU-DHL-5, 72 h, SUDHL5, 72 hours incubation, CellTiter-Glo, median, read-out: Antiproli SUDHL5 [M] (median)
[15] = Homo sapiens, SU-DHL10, 3 h, SUDHL10, 3 hours treatment, Caspase-Glo 3/7, median, read-out: Caspase SUDHL10 [M] (median)
[16] = Homo sapiens, MV4-11, 72 h, MV-4-11, 72 hours incubation, CellTiter-Glo; several values per example; read-out: Antiproli MV-4-11
[17] = Homo sapiens, AMO1, 72 h, AMO-1, 72 hours incubation, CellTiter-Glo; several values per example; read-out: Antiproli AMO-1
[18] = Homo sapiens, SU-DHL-5, 3 h, SUDHL5, 3 hours treatment, Caspase-Glo 3/7, median, read-out: Caspase SUDHL5 [M] (median)
[19] = read-out: Antiproli A2780; A2780, 72 hours incubation, CellTiter-Glo; several values per example
[20] = read-out: Antiproli SUDHL5 [M] (median), SUDHL5, 72 hours incubation, CellTiter-Glo
[21] = read-out: Caspase SUDHL10 [M] (median), SUDHL10, 3 hours treatment, Caspase-Glo 3/7
[22] = read-out: Antiproli MV-4-11; MV-4-11, 72 hours incubation, CellTiter-Glo; several values per example
[23] = read-out: Antiproli AMO-1; AMO-1, 72 hours incubation, CellTiter-Glo; several values per example
[24] = read-out: Caspase SUDHL5 [M] (median), SUDHL5, 3 hours treatment, Caspase-Glo 3/7

Compound | IC50 [1, 10] [µM] | IC50 [4] [M] | IC50 [5, 11] | IC50 [6, 12] [µM] | IC50 [7] [M] | IC50 [8] [M] | IC50 [1, 13] [µM] | IC50 [2, 14] [M] | EC50 [3, 15] [M] | IC50 ([4]; Homo sapiens, SU-DHL10, 5 h) [M] | IC50 [6, 17] [µM] | EC50 [9, 18] [M] | IC50 [1, 19] [µM] | IC50 [2, 20] [M] | EC50 [3, 21] [M] | IC50 [5, 22] | IC50 [6, 23] | EC50 [9, 24] [M] | other results
CCc1nn(CCN2CCOCC2)c2c1-c1c(Cl)ccc3c(CCCOc4cccc5cc(F)ccc45)c(C(=O)O)n(c13)Cc1ccccc1COC2 (single isomer, unassigned; enantiomer 2) [Example 53, (+)-3-Chloro-4-ethyl-17-{3-[(6-fluoronaphthalen-1-yl)oxy]propyl}-6-[2-(morpholin-4-yl)ethyl]-6,7,9,14-tetrahydroindolo[7,1-fg]pyrazolo[3,4-d][2,8]benzoxazacycloundecine-16-carboxylic Acid (Enantiomer 2)] | 8.15 | 6.5e-06 | 4.91 µM and 8.2 µM | 9.44 | 8.3e-09 | 2.3e-06 | – | – | – | – | – | – | – | – | – | – | – | – | IC50 ([2]; SUDHL5, 72 hours incubation, CellTiter-Glo, median, read-out: Antiproli SUDHL5 [M] (median)): 2.8e-06 M; EC50 ([3]; SUDHL10, 3 hours treatment, Caspase-Glo 3/7, median, read-out: Caspase SUDHL10 [M] (median)): 5.9e-06 M; EC50 ([9]; SUDHL5, 3 hours treatment, Caspase-Glo 3/7, median, read-out: Caspase SUDHL5 [M] (median)): 1.8e-06 M
CCc1c2c(nn1C)COCc1ccccc1Cn1c(C(=O)O)c(CCCOc3cccc4cc(F)ccc34)c3ccc(Cl)c-2c31 (racemic) [Example 54, (rac)-3-Chloro-4-ethyl-17-{3-[(6-fluoronaphthalen-1-yl)oxy]propyl}-5-methyl-5,7,9,14-tetrahydroindolo[7,1-fg]pyrazolo[3,4-d][2,8]benzoxazacycloundecine-16-carboxylic Acid] | – | – | – | – | 8.3e-10 | – | 6.59 | 1.4e-06 | 1.8e-06 | 2.6e-06 | 1.77 | 8.4e-07 | – | – | – | – | – | – | IC50 [5, 16]: 3.83 µM; IC50 ([8]; Homo sapiens, SU-DHL-5, 5 h): 9.3e-07 M
Cc1c2c(nn1C)COCc1cccnc1Cn1c(C(=O)O)c(CCCOc3cccc4ccccc34)c3cccc-2c31 [Example 06] | 8.66 | – | 5.38 µM | 19.9 | – | – | – | – | – | – | – | – | – | – | – | – | – | – | –
CCc1c2c(nn1C)COCc1ccccc1Cn1c(C(=O)O)c(CCCOc3cccc4ccccc34)c3ccc(F)c-2c31 (single isomer, unassigned; enantiomer 2) [Example 72, (+)-4-Ethyl-3-fluoro-5-methyl-17-{3-[(naphthalen-1-yl)oxy]propyl}-5,7,9,14-tetrahydroindolo[7,1-fg]pyrazolo[3,4-d][2,8]benzoxazacycloundecine-16-carboxylic acid-N-ethylethanamine Salt (Enantiomer 2)] | – | 2.6e-05 | – | – | 5.2e-09 | 8.5e-06 | – | – | – | – | – | – | 15 | 1.2e-05 | > 2.8e-05 | 9.57 µM | 18.9 µM | 1.2e-05 | –
Cc1c2c(nn1C)CN(S(=O)(=O)CCN1CCOCC1)Cc1ccccc1Cn1c(C(=O)O)c(CCCOc3cccc4ccccc34)c3cccc-2c31 (single isomer, unassigned; enantiomer 2) [Example 32, (−)-4,5-Dimethyl-8-[2-(morpholin-4-yl)ethanesulfonyl]-17-{3-[(naphthalen-1-yl)oxy]propyl}-7,8,9,14-tetrahydro-5H-indolo[1,7-bc]pyrazolo[4,3-e][2,8]benzodiazacycloundecine-16-carboxylic acid-N-ethylethanamine Salt (Enantiomer 2)] | – | > 3.3e-05 | – | – | 1.8e-07 | > 3.3e-05 | – | – | – | – | – | – | 10.8 | 4.5e-06 | > 3.3e-05 | 8.42 µM | 13.5 µM | > 3.3e-05 | –
Cc1c2c(nn1C)COCc1ccccc1Cn1c(C(=O)O)c(CCCOc3cccc4cc(F)ccc34)c3ccc(F)c-2c31 (racemic) [Example 64, (rac)-15-Fluoro-1-(3-((6-fluoronaphthalen-1-yl)oxy)propyl)-13,14-dimethyl-4,9,11,13-tetrahydrobenzo[3,4]pyrazolo[4′,3′:9,10][1,6]oxaazacycloundecino[8,7,6-hi]indole-2-carboxylic Acid] | – | – | – | – | 1.5e-09 | – | 17.1 | 1.5e-06 | 6e-06 | 3.2e-06 | 7.46 | 1.7e-06 | – | – | – | – | – | – | IC50 ([8]; Homo sapiens, SU-DHL-5, 5 h): 2.2e-06 M
Cc1c2c(nn1C)COCc1cccnc1Cn1c(C(=O)O)c(CCCOc3cccc4ccccc34)c3cccc-2c31 [Example 05] | 6.65 | – | 5.48 µM | 8.78 | – | – | – | – | – | – | – | – | – | – | – | – | – | – | –
Cc1c2c(nn1C)COCc1cccnc1Cn1c(C(=O)O)c(CCCOc3cccc4ccccc34)c3ccc(Cl)c-2c31 (single isomer, unassigned; enantiomer 2) [Example 41, 3-Chloro-4,5-dimethyl-17-[3-(naphthalen-1-yloxy)propyl]-5,7,9,14-tetrahydropyrazolo-[4′,3′:9,10]pyrido[3′,2′:3,4][1,6]oxazacycloundecino[8,7,6-hi]indole-16-carboxylic acid-N-ethylethanamine Salt (Enantiomer 2)] | – | 1.4e-05 | – | – | 5.8e-09 | 6e-06 | – | – | – | – | – | – | > 33 | 5.2e-06 | 1.6e-05 | 15.9 µM and 8.2 µM | 8.4 µM and 11.2 µM | 6.1e-06 | –
CCc1nn(C)c2c1-c1c(Cl)ccc3c(CCCOc4cccc5cc(F)ccc45)c(C(=O)O)n(c13)Cc1ccccc1COC2 (racemic) [Example 57, (rac)-3-Chloro-4-ethyl-17-{3-[(6-fluoronaphthalen-1-yl)oxy]propyl}-6-methyl-6,7,9,14-tetrahydro-indolo[7,1-fg]pyrazolo[3,4-d][2,8]benzoxazacycloundecine-16-carboxylic Acid] | – | – | – | – | 2.7e-09 | – | 7.02 | 2.4e-06 | 4.3e-06 | 4.6e-06 | 2.65 | 1.5e-06 | – | – | – | – | – | – | IC50 [5, 16]: 2.19 µM
Cc1c2c(nn1C)COCc1ccccc1Cn1c(C(=O)O)c(CCCOc3cccc4cc(F)ccc34)c3ccc(F)c-2c31 (single isomer, unassigned; enantiomer 2) [Example 66, (+)-3-Fluoro-17-{3-[(6-fluoronaphthalen-1-yl)oxy]propyl}-4,5-dimethyl-5,7,9,14-tetrahydroindolo[7,1-fg]pyrazolo[3,4-d][2,8]benzoxazacycloundecine-16-carboxylic acid-N-ethylethanamine Salt (Enantiomer 2)] | – | 8.6e-06 | – | – | 6.2e-09 | 4.1e-06 | – | – | – | – | – | – | > 33 | 3.6e-06 | 1.2e-05 | – | 7.13 µM and 7.07 µM | 3.3e-06 | –

Source: patent publication US20210253598A1, “ARYL ANNULATED MACROCYCLIC INDOLE DERIVATIVES” (priority 2017, published 2021)
